Patent US20070021435A1, “AMINOPYRIMIDINES AS KINASE MODULATORS” (priority 2005, published 2007)

The compounds below were run against T1, isolated kinase domain of the human c-kit receptor (Homo sapiens, UniProt P10721) (assay: c-Kit fluorescence polarization kinase assay). Settings: 1 nM c-kit, 50 uM ATP, 45 minutes; uncertainty ±10%.
T1 construct: isolated kinase domain of the human c-kit receptor; purchased ProQinase lot SP005
Type: biochemical
Protocol: The compounds of the present invention are also specific inhibitors of c-Kit. Selection of preferred compounds of Formula I for use as c-Kit inhibitors was performed in the following manner using an in vitro kinase assay to measure inhibition of the isolated kinase domain of the human c-kit receptor in a fluorescence polarization (FP) protocol. The c-kit assay utilized the fluorescein-labeled phosphopeptide and the anti-phosphotyrosine antibody included in the Panvera Phospho-Tyrosine Kinase Kit (Green) supplied by Invitrogen. When c-kit phosphorylated the poly Glu4Tyr, the fluorescein-labeled phosphopeptide was displaced from the anti-phosphotyrosine antibody by the phosphorylated poly Glu4Tyr, thus decreasing the FP value. The c-kit kinase reaction was incubated at room temperature for 45 minutes under the following conditions: 1 nM c-kit (ProQinase, lot SP005), 100 ug/mL poly Glu4Tyr, 50 uM ATP, 5 mM MgCl2, 1 mM DTT, 0.01% Tween-20, 1% DMSO or compound in […], pH 7.5. The kinase reaction was stopped with the addition of EDTA. The fluorescein-labeled phosphopeptide and the anti-phosphotyrosine antibody were added and incubated for 30 minutes at room temperature and fluorescence polarization was read. Data points were an average of triplicate samples.

T1 sequence (P10721 589-937 limits assumed): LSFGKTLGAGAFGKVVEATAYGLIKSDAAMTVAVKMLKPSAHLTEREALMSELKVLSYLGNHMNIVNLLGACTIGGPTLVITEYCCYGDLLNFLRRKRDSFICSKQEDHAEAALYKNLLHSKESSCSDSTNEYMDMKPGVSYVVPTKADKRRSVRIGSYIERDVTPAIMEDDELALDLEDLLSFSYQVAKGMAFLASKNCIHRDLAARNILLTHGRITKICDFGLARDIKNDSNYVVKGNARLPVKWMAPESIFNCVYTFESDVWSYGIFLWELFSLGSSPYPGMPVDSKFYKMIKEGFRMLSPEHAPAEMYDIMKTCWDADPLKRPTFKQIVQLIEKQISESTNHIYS

| Compound | IC50 [nM] |
| --- | --- |
| CO/N=C/c1c(N)ncnc1N1CCN(C(=O)Nc2ccc(OC(C)C)cc2)CC1 [Example 1, 4-[6-Amino-5-(methoxyimino-methyl)-pyrimidin-4-yl]-piperazine-1-carboxylic acid (4-isopropoxy-phenyl)-amide] | 10.5 |
| CC(C)Oc1ccc(NC(=O)N2CCN(c3ncnc(N)c3/C=N/OCCN3CCOCC3)CC2)cc1 [Example 2, 4-{6-Amino-5-[(2-morpholin-4-yl-ethoxyimino)-methyl]-pyrimidin-4-yl}-piperazine-1-carboxylic acid (4-isopropoxy-phenyl)-amide] | 26 |
| CCO/N=C/c1c(N)ncnc1N1CCN(C(=O)Nc2ccc(N3CCCCC3)cc2)CC1 [Example 11, 4-[6-Amino-5-(ethoxyimino-methyl)-pyrimidin-4-yl]-piperazine-1-carboxylic acid (4-piperidin-1-yl-phenyl)-amide] | 5.1 |

Each compound was assayed against T2, TrkB (Homo sapiens, UniProt Q16620) (assay: TrkB fluorescence polarization kinase assay). Settings: 50 nM TrkB, 150 uM ATP, 30 minutes; uncertainty ±10%.
T2 construct: purchased Upstate 14-507M
T2 sequence (Q16620 526-822 limits assumed): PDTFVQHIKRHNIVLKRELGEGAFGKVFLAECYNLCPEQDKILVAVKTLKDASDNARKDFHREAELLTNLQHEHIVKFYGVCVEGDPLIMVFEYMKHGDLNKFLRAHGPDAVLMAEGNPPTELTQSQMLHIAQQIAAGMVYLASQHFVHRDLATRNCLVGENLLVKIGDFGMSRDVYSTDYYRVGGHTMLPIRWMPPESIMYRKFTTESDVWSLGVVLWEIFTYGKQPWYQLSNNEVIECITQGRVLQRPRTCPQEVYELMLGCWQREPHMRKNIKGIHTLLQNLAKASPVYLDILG
Type: biochemical
Protocol: The compounds of the present invention are also specific inhibitors of TrkB. Selection of preferred compounds of Formula I for use as TrkB inhibitors was performed in the following manner. The TrkB assay utilized the fluorescein-labeled phosphopeptide and the anti-phosphotyrosine antibody included in the Panvera Phospho-Tyrosine Kinase Kit (Green) supplied by Invitrogen. When TrkB phosphorylated poly Glu4Tyr, the fluorescein-labeled phosphopeptide was displaced from the anti-phosphotyrosine antibody by the phosphorylated poly Glu4Tyr, thus decreasing the FP value. The TrkB kinase reaction was incubated at room temperature for 30 minutes under the following conditions: 50 nM TrkB (Upstate, catalog # 14-507M), 20 ug/mL poly Glu4Tyr, 150 uM ATP, 5 mM MgCl2, 1% compound in DMSO. The kinase reaction was stopped with the addition of EDTA. The fluorescein-labeled phosphopeptide and the anti-phosphotyrosine antibody were added and incubated for 30 minutes at room temperature. Data points were an average of triplicate samples.

| Compound | IC50 [nM] |
| --- | --- |
| CO/N=C/c1c(N)ncnc1N1CCN(C(=O)Nc2ccc(OC(C)C)cc2)CC1 [Example 1, 4-[6-Amino-5-(methoxyimino-methyl)-pyrimidin-4-yl]-piperazine-1-carboxylic acid (4-isopropoxy-phenyl)-amide] | 800 |
| CC(C)Oc1ccc(NC(=O)N2CCN(c3ncnc(N)c3/C=N/OCCN3CCOCC3)CC2)cc1 [Example 2, 4-{6-Amino-5-[(2-morpholin-4-yl-ethoxyimino)-methyl]-pyrimidin-4-yl}-piperazine-1-carboxylic acid (4-isopropoxy-phenyl)-amide] | 10100 |
| CC(C)Oc1ccc(NC(=O)N2CCN(c3ncnc(N)c3/C=N/OCCCO)CC2)cc1 [Example 3, 4-{6-Amino-5-[(3-hydroxy-propoxyimino)-methyl]-pyrimidin-4-yl}-piperazine-1-carboxylic acid (4-isopropoxy-phenyl)-amide] | 1300 |
| CO/N=C/c1c(N)ncnc1N1CCN(C(=O)Nc2ccc(N3CCCCC3)cc2)CC1 [Example 4, 4-[6-Amino-5-(methoxyimino-methyl)-pyrimidin-4-yl]-piperazine-1-carboxylic acid (4-piperidin-1-yl-phenyl)-amide] | 4000 |
| CO/N=C/c1c(N)ncnc1N1CCN(C(=O)Nc2ccc(N3CCOCC3)cc2)CC1 [Example 5, 4-[6-Amino-5-(methoxyimino-methyl)-pyrimidin-4-yl]-piperazine-1-carboxylic acid (4-morpholin-4-yl-phenyl)-amide] | 8400 |
| CO/N=C/c1c(N)ncnc1N1CCN(C(=O)Nc2ccc(OC3CCC3)nc2)CC1 [Example 6, 4-[6-Amino-5-(methoxyimino-methyl)-pyrimidin-4-yl]-piperazine-1-carboxylic acid (6-cyclobutoxy-pyridin-3-yl)-amide] | 3500 |
| CO/N=C/c1c(N)ncnc1N1CCN(C(=O)Cc2ccc(C(C)C)cc2)CC1 [Example 7, 4-Amino-6-{4-[2-(4-isopropyl-phenyl)-acetyl]-piperazin-1-yl}-pyrimidine-5-carbaldehyde O-methyl-oxime] | 500 |
| CO/N=C/c1c(N)ncnc1N1CCN(C(=O)Nc2ccc(C(C)C)cc2)CC1 [Example 8, 4-[6-Amino-5-(methoxyimino-methyl)-pyrimidin-4-yl]-piperazine-1-carboxylic acid (4-isopropyl-phenyl)-amide] | 1100 |
| CCO/N=C/c1c(N)ncnc1N1CCN(C(=O)Nc2ccc(OC(C)C)cc2)CC1 [Example 9, 4-[6-Amino-5-(ethoxyimino-methyl)-pyrimidin-4-yl]-piperazine-1-carboxylic acid (4-isopropoxy-phenyl)-amide (anti-configuration for —C═N—O—)] | 600 |
| CCO/N=C\c1c(N)ncnc1N1CCN(C(=O)Nc2ccc(OC(C)C)cc2)CC1 [Example 10, 4-[6-Amino-5-(ethoxyimino-methyl)-pyrimidin-4-yl]-piperazine-1-carboxylic acid (4-isopropoxy-phenyl)-amide (syn-configuration for —C═N—O—)] | 11000 |
| CCO/N=C/c1c(N)ncnc1N1CCN(C(=O)Nc2ccc(N3CCCCC3)cc2)CC1 [Example 11, 4-[6-Amino-5-(ethoxyimino-methyl)-pyrimidin-4-yl]-piperazine-1-carboxylic acid (4-piperidin-1-yl-phenyl)-amide] | 2600 |
| CCO/N=C/c1c(N)ncnc1N1CCN(C(=O)Nc2ccc(OC3CCC3)nc2)CC1 [Example 12, 4-[6-Amino-5-(ethoxyimino-methyl)-pyrimidin-4-yl]-piperazine-1-carboxylic acid (6-cyclobutoxy-pyridin-3-yl)-amide] | 1600 |
| CCO/N=C/c1c(N)ncnc1N1CCN(C(=O)Cc2ccc(C(C)C)cc2)CC1 [Example 13, 4-Amino-6-{4-[2-(4-isopropyl-phenyl)-acetyl]-piperazin-1-yl}-pyrimidine-5-carbaldehyde O-ethyl-oxime (anti-configuration for —C═N—O—)] | 2200 |
| CCO/N=C\c1c(N)ncnc1N1CCN(C(=O)Cc2ccc(C(C)C)cc2)CC1 [Example 14, 4-Amino-6-{4-[2-(4-isopropyl-phenyl)-acetyl]-piperazin-1-yl}-pyrimidine-5-carbaldehyde O-ethyl-oxime (syn-configuration for —C═N—O—)] | 1400 |
| CCO/N=C/c1c(N)ncnc1N1CCN(C(=O)Nc2ccc(N3CCOCC3)cc2)CC1 [Example 15, 4-[6-Amino-5-(ethoxyimino-methyl)-pyrimidin-4-yl]-piperazine-1-carboxylic acid (4-morpholin-4-yl-phenyl)-amide] | 7760 |
| CC(C)Oc1ccc(NC(=O)N2CCN(c3ncnc(N)c3/C=N/OCC(=O)N3CCOCC3)CC2)cc1 [Example 16, 4-{6-Amino-5-[(2-morpholin-4-yl-2-oxo-ethoxyimino)-methyl]-pyrimidin-4-yl}-piperazine-1-carboxylic acid (4-isopropoxy-phenyl)-amide] | 11100 |
| CO/N=C/c1c(N)ncnc1N1CCN(C(=O)Nc2ccc(OC3CCCC3)nc2)CC1 [Example 17, 4-[6-Amino-5-(methoxyimino-methyl)-pyrimidin-4-yl]-piperazine-1-carboxylic acid (6-cyclopentyloxy-pyridin-3-yl)-amide] | 800 |
| CO/N=C/c1c(N)ncnc1N1CCN(C(=O)Nc2ccc(N3CCCC3)cc2)CC1 [Example 18, 4-[6-Amino-5-(methoxyimino-methyl)-pyrimidin-4-yl]-piperazine-1-carboxylic acid (4-pyrrolidin-1-yl-phenyl)-amide] | 2600 |
| CO/N=C/c1c(N)ncnc1N1CCN(C(=O)Nc2ccc(C3CCCCC3)cc2)CC1 [Example 19, 4-[6-Amino-5-(methoxyimino-methyl)-pyrimidin-4-yl]-piperazine-1-carboxylic acid (4-cyclohexyl-phenyl)-amide] | 1680 |
| CO/N=C/c1c(N)ncnc1N1CCN(C(=O)Nc2ccc(Cl)cc2)CC1 [Example 20, 4-[6-Amino-5-(methoxyimino-methyl)-pyrimidin-4-yl]-piperazine-1-carboxylic acid (4-chloro-phenyl)-amide] | 15600 |
| CO/N=C/c1c(N)ncnc1N1CCN(C(=O)Nc2ccc(Oc3ccccc3)cc2)CC1 [Example 21, 4-[6-Amino-5-(methoxyimino-methyl)-pyrimidin-4-yl]-piperazine-1-carboxylic acid (4-phenoxy-phenyl)-amide] | 7400 |
